# Biological target: Aβ42 (Homo sapiens, UniProt P05067)
# Test: Th-T (thioflavin-T) assay of Aβ42 aggregation
# Format: biochemical
# Conditions: for Th-T assay plate reading, mean of three wells (Supplementary Fig. 47): source data, Ab alone and No Ab as controls
# Aβ42, sequence (P05067 672-713): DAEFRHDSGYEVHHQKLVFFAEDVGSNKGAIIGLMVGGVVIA
structure (smiles),measurement,setting,value
C=C1CCC2C(C)(CCC=C(C)C)C(O)CCC2(C)C1Cc1c(OC)oc(C)c(C)c1=O (stereo not drawn) [Compound 11],"Th-T fluorescence, mean of three wells","Aβ42 aggregation time course, reading M117",3.419
same,"Th-T fluorescence, mean of three wells","Aβ42 aggregation time course, reading M118",3.454
same,"Th-T fluorescence, mean of three wells","Aβ42 aggregation time course, reading M119",3.399
same,"Th-T fluorescence, mean of three wells","Aβ42 aggregation time course, reading M120",3.398
same,"Th-T fluorescence, mean of three wells","Aβ42 aggregation time course, reading M121",3.42
same,"Th-T fluorescence, mean of three wells","Aβ42 aggregation time course, reading M122",3.434
same,"Th-T fluorescence, mean of three wells","Aβ42 aggregation time course, reading M123",3.405
same,"Th-T fluorescence, mean of three wells","Aβ42 aggregation time course, reading M124",3.409
same,"Th-T fluorescence, mean of three wells","Aβ42 aggregation time course, reading M125",3.379
same,"Th-T fluorescence, mean of three wells","Aβ42 aggregation time course, reading M126",3.403
same,"Th-T fluorescence, mean of three wells","Aβ42 aggregation time course, reading M127",3.386
same,"Th-T fluorescence, mean of three wells","Aβ42 aggregation time course, reading M128",3.37
same,"Th-T fluorescence, mean of three wells","Aβ42 aggregation time course, reading M129",3.334
same,"Th-T fluorescence, mean of three wells","Aβ42 aggregation time course, reading M130",3.361
same,"Th-T fluorescence, mean of three wells","Aβ42 aggregation time course, reading M131",3.331
same,"Th-T fluorescence, mean of three wells","Aβ42 aggregation time course, reading M132",3.363
same,"Th-T fluorescence, mean of three wells","Aβ42 aggregation time course, reading M133",3.349
same,"Th-T fluorescence, mean of three wells","Aβ42 aggregation time course, reading M134",3.347
same,"Th-T fluorescence, mean of three wells","Aβ42 aggregation time course, reading M135",3.342
same,"Th-T fluorescence, mean of three wells","Aβ42 aggregation time course, reading M136",3.355
same,"Th-T fluorescence, mean of three wells","Supplementary Fig. 47, reading M137",3.327
same,"Th-T fluorescence, mean of three wells","Supplementary Fig. 47, reading M138",3.302
same,"Th-T fluorescence, mean of three wells","Supplementary Fig. 47, reading M139",3.301
same,"Th-T fluorescence, mean of three wells","Supplementary Fig. 47, reading M140",3.319
same,"Th-T fluorescence, mean of three wells","Supplementary Fig. 47, reading M141",3.315
same,"Th-T fluorescence, mean of three wells","Supplementary Fig. 47, reading M142",3.306
same,"Th-T fluorescence, mean of three wells","Supplementary Fig. 47, reading M143",3.276
same,"Th-T fluorescence, mean of three wells","Supplementary Fig. 47, reading M144",3.297
same,"Th-T fluorescence, mean of three wells","Supplementary Fig. 47, reading M145",3.29
same,"Th-T assay plate reading, mean of three wells (Supplementary Fig. 47)",measurement M1,0.2852
same,"Th-T assay plate reading, mean of three wells (Supplementary Fig. 47)",measurement M2,0.2849
same,"Th-T assay plate reading, mean of three wells (Supplementary Fig. 47)",measurement M3,0.2915
same,"Th-T assay plate reading, mean of three wells (Supplementary Fig. 47)",measurement M4,0.2733
same,"Th-T assay plate reading, mean of three wells (Supplementary Fig. 47)",measurement M5,0.2777
same,"Th-T assay plate reading, mean of three wells (Supplementary Fig. 47)",measurement M6,0.2762
same,"Th-T assay plate reading, mean of three wells (Supplementary Fig. 47)",measurement M7,0.318
same,"Th-T assay plate reading, mean of three wells (Supplementary Fig. 47)",measurement M8,0.3144
same,"Th-T assay plate reading, mean of three wells (Supplementary Fig. 47)",measurement M9,0.404
same,"Th-T assay plate reading, mean of three wells (Supplementary Fig. 47)",measurement M10,0.4577
same,"Th-T assay plate reading, mean of three wells (Supplementary Fig. 47)",measurement M11,0.5537
same,"Th-T assay plate reading, mean of three wells (Supplementary Fig. 47)",measurement M12,0.8108
same,"Th-T assay plate reading, mean of three wells (Supplementary Fig. 47)",measurement M13,1.388
same,"Th-T assay plate reading, mean of three wells (Supplementary Fig. 47)",measurement M14,1.929
same,"Th-T assay plate reading, mean of three wells (Supplementary Fig. 47)",measurement M15,2.27
same,"Th-T assay plate reading, mean of three wells (Supplementary Fig. 47)",measurement M16,2.506
same,"Th-T fluorescence, mean of three wells","reading M17, Supplementary Fig. 47 source data",2.688
same,"Th-T fluorescence, mean of three wells","time-course reading M97, Supplementary Fig. 47 source data",3.56
same,"Th-T fluorescence, mean of three wells","time-course reading M98, Supplementary Fig. 47 source data",3.55
same,"Th-T fluorescence, mean of three wells","time-course reading M99, Supplementary Fig. 47 source data",3.504
same,"Th-T fluorescence, mean of three wells","time-course reading M100, Supplementary Fig. 47 source data",3.536
same,"Th-T fluorescence, mean of three wells","time-course reading M101, Supplementary Fig. 47 source data",3.529
same,"Th-T fluorescence, mean of three wells","time-course reading M102, Supplementary Fig. 47 source data",3.494
same,"Th-T fluorescence, mean of three wells","time-course reading M103, Supplementary Fig. 47 source data",3.477
same,"Th-T fluorescence, mean of three wells","time-course reading M104, Supplementary Fig. 47 source data",3.513
same,"Th-T fluorescence, mean of three wells","time-course reading M105, Supplementary Fig. 47 source data",3.503
same,"Th-T fluorescence, mean of three wells","time-course reading M106, Supplementary Fig. 47 source data",3.461
same,"Th-T fluorescence, mean of three wells","time-course reading M107, Supplementary Fig. 47 source data",3.469
same,"Th-T fluorescence, mean of three wells","time-course reading M108, Supplementary Fig. 47 source data",3.473
same,"Th-T fluorescence, mean of three wells","time-course reading M109, Supplementary Fig. 47 source data",3.5
same,"Th-T fluorescence, mean of three wells","time-course reading M110, Supplementary Fig. 47 source data",3.498
same,"Th-T fluorescence, mean of three wells","time-course reading M111, Supplementary Fig. 47 source data",3.4993
same,"Th-T fluorescence, mean of three wells","time-course reading M112, Supplementary Fig. 47 source data",3.484
same,"Th-T fluorescence, mean of three wells","time-course reading M113, Supplementary Fig. 47 source data",3.437
same,"Th-T fluorescence, mean of three wells","time-course reading M114, Supplementary Fig. 47 source data",3.447
same,"Th-T fluorescence, mean of three wells","time-course reading M115, Supplementary Fig. 47 source data",3.426
same,"Th-T fluorescence, mean of three wells","time-course reading M116, Supplementary Fig. 47 source data",3.43

# From article PMC7156458, “Synthetic biology based construction of biological activity-related library of fungal decalin-containing diterpenoid pyrones” (Nature Communications, 2020)
